Reference: patent publication US20250099369A1, “TOPICAL DELIVERY COMPOSITIONS COMPRISING NON-STEROIDAL ANTI-INFLAMMATORY DRUGS” (Andros Pharmaceuticals Co., LTD., priority 2023, published 2025)

Experiment: physchem
Format: physicochemical
Settings: 25 °C, aqueous buffer, thermodynamic from solid, Diclofenac Solubility
Description: In the aqueous solution containing 1% boric acid, add SPC (0%, 1%, 3%, 5%, 8%, 10%, 13%, 15%, 18%, 20%) and urea (0%, 5%, 10%, 20%, 30%, 40%, 50%) and stir until complete dissolution. A total of 70 sample solutions with different SPC and urea concentrations were obtained.
An excess of diclofenac sodium was added to each set of sample solutions and stirred overnight at 25° C. The sample solution was centrifuged at 12,000 rpm for 5 minutes, and a portion of the supernatant was diluted with appropriate diluent and analyzed by HPLC, to determine the solubility of diclofenac sodium in aqueous solutions containing different concentrations of SPC and urea. The results are presented in Table1.

- solubility: 19.7 mg/mL
SMILES: O=C(O)Cc1ccccc1Nc1c(Cl)cccc1Cl [diclofenac sodium]
